Here are results for 2 molecules from BindingDB's records for doi:10.1111/j.1747-0285.2012.01367.x (Peking University Health Science Center, 2012).

This experiment concerns the target Beta-secretase 1 (Homo sapiens, UniProt P56817). In words: BACE-1 Inhibiiton Assay. On the procedure: Beta-Secretase inhibition evaluations were carried out using a fluorescence resonance energy transfer (FRET) assay kit supplied by PanVera (kit P2985).

As a reminder, the IC50 is the midpoint of a concentration-inhibition curve. A lower IC50 goes with greater potency in that assay.

Chain of Beta-secretase 1 (P56817 whole entry): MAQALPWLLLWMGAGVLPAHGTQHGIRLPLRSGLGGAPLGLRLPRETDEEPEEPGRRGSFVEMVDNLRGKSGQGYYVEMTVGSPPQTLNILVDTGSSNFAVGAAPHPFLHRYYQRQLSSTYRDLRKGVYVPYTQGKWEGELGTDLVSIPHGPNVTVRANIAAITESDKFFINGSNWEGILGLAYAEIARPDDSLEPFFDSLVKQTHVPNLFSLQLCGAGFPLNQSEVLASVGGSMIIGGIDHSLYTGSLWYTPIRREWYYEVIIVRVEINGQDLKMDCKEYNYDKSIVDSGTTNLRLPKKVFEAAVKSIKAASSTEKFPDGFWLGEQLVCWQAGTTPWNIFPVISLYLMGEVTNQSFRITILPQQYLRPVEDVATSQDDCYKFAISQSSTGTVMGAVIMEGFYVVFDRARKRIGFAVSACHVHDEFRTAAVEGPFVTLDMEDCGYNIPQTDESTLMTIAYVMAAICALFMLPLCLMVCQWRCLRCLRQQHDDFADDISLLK

Consider `COc1ccc(-c2nc(SCC(=O)Nc3nc(-c4ccccc4)cs3)[nH]c(=O)c2C#N)cc1` [B51], for which the IC50 was found to be 4.76 µM.
For the molecule `O=C(NCc1ccc2c(c1)OCO2)c1cnc2cc(S(=O)(=O)Nc3cccc(C(F)(F)F)c3)ccc2c1O` [B53], the IC50 is 0.31 µM.
